The source of these data is US11654110B2, “Composition and methods for the treatment of peripheral nerve injury” (UNIVERSITY OF ROCHESTER, priority 2013, dated 2023).

Series [1] has as its system Schwann cell-DRG neuron co-cultures. In words: DRG neuron and Schwann cell myelinating co-cultures, MBP+ myelin quantification. The class given is cell-based. The protocol:
Primary Schwann Cell Culture.
Dorsal Root Ganglia (DRG) Neuron Cell Culture. DRG neurons were isolated from E18 embryos of Sprague-Dawley rats and 5,000 neurons were seeded in laminin/poly-L-lysine coated 48 well plates. Primary DRG neurons were maintained in Neurobasal media supplemented with B27 containing antioxidants, 50 ng/mL NGF, and 1 μM Ara-C. 1 μM Ara-C treatment was performed three times for two days each time following two days of fresh medium without Ara-C to eliminate fibroblasts. After two weeks, DRG neurons with extensive axons were seeded with Schwann cells for myelination tests (Syed et al., The Journal of Neuroscience 30:6122-6131 (2010)).
DRG Neuron and Schwann Cell Myelinating Co-cultures. Thirty thousand (30,000) Schwann cells were plated onto the DRG neurons per well. Co-cultures were maintained in differentiation media (DMEM/F12 (1:1), 50 ng/mL NGF, 1× N2 supplement) for a week. Co-cultures were then changed to myelinating medium (MEM, 50 ng/mL NGF, 50 μg/mL ascorbic acid, 10% FBS) for two weeks. Medium was changed every two days (Syed et al., The Journal of Neuroscience 30:6122-6131 (2010)). EPO was added three times at day 6 of differentiating stage, day 1, and day 3 of myelinating stage.
Myelin Quantification. To quantify the extent of myelination in co-cultures, the total number of MBP+ myelin was counted within the whole culture well and normalized by the total cell number (DAPI+).
To determine whether EPO enhances Schwann cell-mediated myelination directly we exposed Schwann cell-DRG neuron co-cultures to various concentrations of EPO (1, 10, 100 unit/mL of EPO). In FIG. 15A, every single short thread-like MBP+ staining cells representing a myelin formed by a single myelinating Schwann cell wrapped around the axon.

The conditions of series [2]: intravenous and oral gelatin-based capsule treatments; cited from earlier work.
A further series concerns compressed nerves. In words: Nerve conduction velocity of chronically compressed nerve (sleeve around the nerve). Conditions: 4-AP IP single bolus; 7, 9, 12 weeks of compression. The class given is in vivo, mice. The protocol: FIGS. 1A, 1B and 1C show graphs of nerve conduction velocity at 7 weeks (FIG. 1A), 9 weeks (FIG. 1B) and 12 weeks (FIG. 1C) of compression and treatment with high dose 4-AP (HD), low dose of 4-AP (LD), and saline (Sal). 4-AP was administered IP in a single dose as a bolus.
The concept that 4-AP may have a role in the treatment of compressed nerves emanates from data showing that the conduction velocity of compressed nerves can respond strongly to pharmacologic treatment with this agent. […] Therefore, 4-AP may be used locally or systemically for the treatment of chronic compression injury.

The test system of series [3] is crushed sciatic nerve. In words: Sciatic nerve crush injury, sciatic function index (SFI) by walking track analysis. The class given is in vivo, mice. As for the experimental part: There are also possible effects of the 4-AP on nerve injuries suffered more acutely. Acute nerve injury is both common and difficult to treat. One type of acute peripheral nerve injury with a murine model available for study is the sciatic nerve crush injury model in mice and rats. In this model, the nerve is crushed with a variable amount of force which creates a measurable functional deficit in gait. This deficit is measured using a sciatic function index which is an accepted and validated measure of the functional effects of the injury.
(§1) Mouse Model of Peripheral Nerve Injury. All procedures were approved by the University of Rochester Committee on Animal Resources. Female 10-week-old C57BL6 mice were performed sciatic nerve crush injury on the left hindlimb and the sham-surgery on the other one. All extensive surgery procedures were as described previously (Elfar et al., The Journal of Bone and Joint Surgery, 90: 1644-1653 (2008)). rhEPO was administered immediately at a dose of 5000 U/kg (Juul, Acta Paediatrica 91:36-42 (2002), Bianchi et al., PNAS 101:823-828 (2004), and Elfar et al., The Journal of Bone and Joint Surgery, 90:1644-1653 (2008)).
Sciatic Function Index (SFI) Determined by Walking Track Analysis. The assessment of motor function recovery was performed by calculating the sciatic function index (SFI). Walking track analysis was performed according to a published model that quantifies sciatic nerve function performance (de Medinaceli et al., Exp. Neurol. 77:634-643 (1982)). The operating procedure is extensively described previously (Elfar et al., The Journal of Bone and Joint Surgery, 90:1644-1653 (2008)). In brief, individual mouse footprints were obtained by painting each foot and walked down the 50 cm path in a narrow corridor lined with paper. Gaits were measured from the resulting footprints to get (1) toe spread (TS) (first through fifth toes), (2) print length (PL), and (3) intermediate toe spread (ITS) (second, third, and fourth toes) of both limbs (Gladman et al., The Journal of Neuroscience, 32:563-571 (2012)). All three measurements from the three most clearly inked foot prints per run were taken from the normal (N) and experimental (E) sides, and the SFI were calculated using the following formula: SFI=−38.3((EPL−NPL)/NPL)+109.5((ETS−NTS)/NTS)+13.3((EIT−NIT)/NIT)−8.8 where E is the injured limb and N is the control limb.

In series [4] the test system is glutathione S-transferase and gamma-glutamylcysteine synthetase. The settings on record: 100 U/mL EPO, isolated Schwann cell cultures.
Excerpt: (unpaired t-test, n=4, p<0.01) FIG. 15D is a gel image of immunoblotting of glutathione S-transferase and gamma-glutamylcysteine synthetase levels in Schwann cells with 100 U/mL EPO treatment.
For series [5], the system named is crushed sciatic nerve. In words: Immunofluorescent staining of myelinated (P0+) and total (neurofilament+) axons in crushed sciatic nerve. The class given is in vivo, mice. Conditions: systemic EPO directly after crush; 7 days post-injury.
Excerpt: FIGS. 14A, 14B, and 14C are images and a graph showing EPO supported preservation of myelin within crushed nerves. FIG. 14A is an image of the immunofluorescent staining of destroyed myelin sheath at the injured site 7 days post-injury. FIG. 14B is an image showing immunofluorescent staining of myelinated axons and total axons in the cross sections of sciatic nerves 7 days post-injury. Representative images of the cross sections of the sciatic nerves (a, d: healthy nerve; b, c, e, f: crushed nerve). FIG. 14C is a graph showing the ratio of the number of myelinated axon to total axons of crushed sciatic nerves with or without EPO administration. (unpaired t-test, n=3, three animals for each set, p<0.01).
as §1
To work towards the underlying action by which EPO works, it was noticed that the speed of recovery in injured mice was too rapid to be attributable to axonal regeneration. 4-aminopyridine (4-AP) is a potassium channel blocker which enables demyelinated axons to conduct impulses, and thus can be used to identify injuries in which whether there exist anatomically intact but demyelinated axons. Mice receiving a sciatic nerve crush injury, performed poorly in SFI tests 3 days after injury. […] The effect of 4-AP raises the possibility that the benefits of EPO may be due to preservation of myelin and/or improvement of remyelination. […] In untreated mice only 25% of axons (neurofilament+) were associated with myelin (P0+) whereas EPO treatment raised this ratio to 60%.

With `CC(=O)NC(C(=O)O)C(C)(C)SN=O` (racemic) [SNAP, S-Nitroso-N-acetyl-DL-penicillamine, reference compound], in series [1] (100 μM SNAP), the baseline myelination entry is listed as “robust decrease in baseline myelination” and the cell death entry is given as “significant cell death was not observed”.

`Nc1ccncc1` [4-AP, 4-aminopyridine]: in series [2], the plasma half-life is 3 to 4 h and the “time to maximum plasma concentration” value is given as “about 1 hour”. Also, in the series on compressed nerves, the “conduction velocity of compressed nerve (ratio to contralateral uninjured nerve)” value was “strong effects of 4-AP administration was seen”. Moreover, in the series with crushed sciatic nerve [3] (4-AP administered systemically on day 3 or day 5 after crush injury), the “sciatic function index (gait)” value is “large improvement in the function of the animals gait”. Moreover, the SFI entry in the series with crushed sciatic nerve [3] (intraperitoneal 100 μg 4-AP, 3 days after injury) was “significant transient improvement in SFI”.

Turning to “EPO: Recombinant human erythropoietin, 30.4-kDa hematopoietic glycoprotein”, the “glutathione S-transferase and gamma-glutamylcysteine synthetase levels” value in series [4] was “up-regulated”. Also, in the series on crushed sciatic nerve [5], the number of axons entry is recorded as “without significantly altering the number of axons”, the “number of myelinated fibers versus untreated” value is on record as “almost tripled” and the “ratio of myelinated (P0+) axons to total axons (neurofilament+)” value is given as 60%. Further, in the series with crushed sciatic nerve [3] (local EPO in fibrin glue vehicle at the site of crush injury, 0.5 U), the “functional improvements in SFI over control groups” value came to 15%. The “SFI function, higher than in untreated animals” value with crushed sciatic nerve [3] (single subcutaneous EPO 5000 U/kg directly after injury, 7 days after injury) came to 20%. Also, the “SFI more restored compared to control group” value in the series on crushed sciatic nerve [3] (single subcutaneous EPO 5000 U/kg directly after injury, day 14 after injury) came out at 15%. In the series on crushed sciatic nerve [3] (systemic EPO 5000 U/kg, seven days post-surgery), the “hind limb / foot appearance” value was “close-to-normal appearance”. Further, the “myelin formation under NO stress” value in series [1] (100 μM SNAP with 100 U/mL EPO) is recorded as “notably recovered myelin formation”. Further, in series [1] (1, 10, 100 unit/mL of EPO), the “total number of MBP+ myelin” value is “increased the total number of the MBP+ myelin in co-culture and was found to be dose-dependent”.
